SMILES strings stand for the structures.

In the test the target is T1, Trypsin from bovine pancreas (Bos taurus, UniProt P00760).
T1 construct: gene PRSS1
T1 sequence (P00760 24-246): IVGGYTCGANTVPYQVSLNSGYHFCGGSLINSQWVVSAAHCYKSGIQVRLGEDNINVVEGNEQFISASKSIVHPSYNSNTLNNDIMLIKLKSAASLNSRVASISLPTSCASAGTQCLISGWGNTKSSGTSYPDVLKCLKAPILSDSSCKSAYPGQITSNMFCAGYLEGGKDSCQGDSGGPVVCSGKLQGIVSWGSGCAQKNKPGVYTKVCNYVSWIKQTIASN
The test is described as follows: spectrophotometric BApNA hydrolysis assay, positive control. Type of test: biochemical.

Broadly, the IC50 is the concentration that gives 50% inhibition. Read a low IC50 as greater potency. Take `O=S(=O)(F)Cc1ccccc1` [PMSF]: the IC50 came out at 110 ± 20 µM.

(Values after paper PMC10058905, “Bioassay-Guided Alkaloids Isolation from Camellia sinensis and Colchicum luteum: In Silico and In Vitro Evaluations for Protease Inhibition” (Molecules, 2023).)
